Target: T1, GnT-V (β1,6-N-acetylglucosaminyl transferase) (Homo sapiens, UniProt Q09328)
T1 construct: 73/60 kDa
T1 sequence (Q09328 31-741): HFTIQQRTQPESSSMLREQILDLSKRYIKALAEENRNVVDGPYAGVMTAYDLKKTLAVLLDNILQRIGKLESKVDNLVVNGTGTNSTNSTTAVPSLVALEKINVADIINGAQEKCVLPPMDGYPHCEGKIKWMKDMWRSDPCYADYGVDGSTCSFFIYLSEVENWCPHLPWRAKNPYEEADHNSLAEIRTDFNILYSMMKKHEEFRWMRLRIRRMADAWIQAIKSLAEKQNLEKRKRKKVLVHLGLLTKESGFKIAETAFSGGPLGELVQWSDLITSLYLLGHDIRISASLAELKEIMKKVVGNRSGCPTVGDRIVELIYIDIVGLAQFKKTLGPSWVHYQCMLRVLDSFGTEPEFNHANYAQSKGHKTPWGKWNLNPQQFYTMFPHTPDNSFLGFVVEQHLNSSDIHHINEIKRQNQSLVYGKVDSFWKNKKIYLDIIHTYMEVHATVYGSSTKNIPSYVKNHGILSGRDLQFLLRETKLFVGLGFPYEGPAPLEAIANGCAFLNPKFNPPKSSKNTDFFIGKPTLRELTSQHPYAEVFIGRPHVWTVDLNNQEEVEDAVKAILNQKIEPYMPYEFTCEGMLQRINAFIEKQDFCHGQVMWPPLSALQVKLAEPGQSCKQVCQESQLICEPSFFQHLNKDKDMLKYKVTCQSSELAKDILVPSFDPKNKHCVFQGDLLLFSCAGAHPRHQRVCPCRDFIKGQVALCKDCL
Test: GnT-V enzyme activity assay with fluorescence-labeled sugar acceptors, product separated by HPLC
Assay type: biochemical
Conditions: for Relative reaction rate: acceptor 70 μM, purified GnT-V 0.1 mg protein/ml, GnGn-bi-PA = 100; for reactivity relative to GnGn-bi-PA acceptor taken as 100%: substrate specificity
From the text: An enzyme activity can be easily assayed by labeling an acceptor with a radioisotope or with fluorescent substance, adding the enzyme and separating the reaction product by high performance liquid chromatography (HPLC). More specifically, the method reported by Tanigichi et al. (Taniguchi, N., Nishikawa, A., Fujii, S., and Gu. J., Methods Enzymol. 179, 397-408 (1989); Nishikawa, H., Gu, J., Fujii, S., and Tanigichi, N., Biochem. Biophys. Acta, 1035, 313-318 (1990)) may be followed.
Namely, the enzyme activity of GnT-V can be assayed using GnGn-2-aminopyridine (GnGn-bi-PA) as an acceptor, and UDP-GluNAc (Sigma) as a donor. Activity is shown by an amount of transferred N-acetylglucosamine/hour/mg protein. Note, an amount of protein can be measured according to a reported method (Redinbaugh, M. G., and Turley, R. B., Anal. Biochem. 153, 267-271 (1986)) using a BCA kit (Pierce Chemical Company, Rockford, Ill.) and using bovine serum albumin as a standard.
Substrate specificity was determined using the following compound as sugar acceptors according to the above-mentioned enzyme activity measuring method. [drawing 1]
GnGnF--, GnGF--, GGnF--, Gn(Gn)GnF--, Gn(Gn)Gn--, GG--, GnGn--, MM-- and GnM-- were isolated from the bovine IgG treated with anhydrous hydrazine and then labeled with a fluorescence label according to Hase et al. method (Hase, S., Ibuki, T., and Ikehara, T., J. Biochem. 95, 197-203 (1984). The purified GnT-V was diluted with PBS buffer to a final concentration of 0.1 mg protein/ml, and then reacted with each fluorescence-labeled sugar acceptor. A result is shown in Table 2.

Structure (SMILES) | Relative reaction rate | further results
O=C(O)CN(CCN(CC(=O)O)CC(=O)O)CC(=O)O [EDTA] | – | inhibition of GnT-V activity (in the presence of 20 mM EDTA): not inhibited
CC(=O)N[C@H]1[C@H](O[C@@H]([C@H](O)[C@H](CNc2ccccn2)NC(C)=O)[C@H](O)CO)O[C@H](CO)[C@@H](O[C@@H]2O[C@H](CO[C@H]3O[C@H](CO)[C@@H](O)[C@H](O)[C@@H]3O[C@@H]3O[C@H](CO)[C@@H](O[C@@H]4O[C@H](CO)[C@H](O)[C@H](O)[C@H]4O)[C@H](O)[C@H]3NC(C)=O)[C@@H](O)[C@H](O[C@H]3O[C@H](CO)[C@@H](O)[C@H](O)[C@@H]3O[C@@H]3O[C@H](CO)[C@@H](O[C@@H]4O[C@H](CO)[C@H](O)[C@H](O)[C@H]4O)[C@H](O)[C@H]3NC(C)=O)[C@@H]2O)[C@@H]1O [GG-bi-PA, Galβ1-4GlcNAcβ1-2Manα1-3(Galβ1-4GlcNAcβ1-2Manα1-6)Manβ1-4GlcNAcβ1-4GlcNAc-2-aminopyridine] | 0 | –
CC(=O)N[C@H]1[C@H](O[C@@H]([C@H](O)[C@H](CNc2ccccn2)NC(C)=O)[C@H](O)CO[C@@H]2O[C@@H](C)[C@@H](O)[C@@H](O)[C@@H]2O)O[C@H](CO)[C@@H](O[C@@H]2O[C@H](CO[C@H]3O[C@H](CO)[C@@H](O)[C@H](O)[C@@H]3O[C@@H]3O[C@H](CO)[C@@H](O[C@@H]4O[C@H](CO)[C@H](O)[C@H](O)[C@H]4O)[C@H](O)[C@H]3NC(C)=O)[C@@H](O)[C@H](O[C@H]3O[C@H](CO)[C@@H](O)[C@H](O)[C@@H]3O[C@@H]3O[C@H](CO)[C@@H](O)[C@H](O)[C@H]3NC(C)=O)[C@@H]2O)[C@@H]1O [GGnF-bi-PA, GlcNAcβ1-2Manα1-3(Galβ1-4GlcNAc2Manα1-6)Manβ1-4GlcNAcβ1-4GlcNAc(Fucα1-6)-2-aminopyridine] | 0.2 | –
CC(=O)N[C@H]1[C@H](O[C@@H]([C@H](O)[C@H](CNc2ccccn2)NC(C)=O)[C@H](O)CO)O[C@H](CO)[C@@H](O[C@@H]2O[C@H](CO[C@H]3O[C@H](CO)[C@@H](O)[C@H](O)[C@@H]3O[C@@H]3O[C@H](CO)[C@@H](O)[C@H](O)[C@H]3NC(C)=O)[C@@H](O[C@@H]3O[C@H](CO)[C@@H](O)[C@H](O)[C@H]3NC(C)=O)[C@H](O[C@H]3O[C@H](CO)[C@@H](O)[C@H](O)[C@@H]3O[C@@H]3O[C@H](CO)[C@@H](O)[C@H](O)[C@H]3NC(C)=O)[C@@H]2O)[C@@H]1O [Gn(Gn)Gn-bi-PA, GlcNAcβ1-2Manα1-2Manα1-6)-Manβ1-4GlcNAcβ1-4GlcNAc-2-aminopyridine] | 0 | –
CC(=O)N[C@H]1[C@H](O[C@@H]([C@H](O)[C@H](CNc2ccccn2)NC(C)=O)[C@H](O)CO[C@@H]2O[C@@H](C)[C@@H](O)[C@@H](O)[C@@H]2O)O[C@H](CO)[C@@H](O[C@@H]2O[C@H](CO[C@H]3O[C@H](CO)[C@@H](O)[C@H](O)[C@@H]3O[C@@H]3O[C@H](CO)[C@@H](O)[C@H](O)[C@H]3NC(C)=O)[C@@H](O[C@@H]3O[C@H](CO)[C@@H](O)[C@H](O)[C@H]3NC(C)=O)[C@H](O[C@H]3O[C@H](CO)[C@@H](O)[C@H](O)[C@@H]3O[C@@H]3O[C@H](CO)[C@@H](O)[C@H](O)[C@H]3NC(C)=O)[C@@H]2O)[C@@H]1O [Gn(Gn)GnF-bi-PA, GlcNAcβ1-2Manα1-2Manα1-6)-Manβ1-4GlcNAcβ1-4GlcNAc(Fucα1-6)2-aminopyridine] | 0 | –
CC(=O)N[C@H]1[C@H](O[C@@H]([C@H](O)[C@H](CNc2ccccn2)NC(C)=O)[C@H](O)CO[C@@H]2O[C@@H](C)[C@@H](O)[C@@H](O)[C@@H]2O)O[C@H](CO)[C@@H](O[C@@H]2O[C@H](CO[C@H]3O[C@H](CO)[C@@H](O)[C@H](O)[C@@H]3O[C@@H]3O[C@H](CO)[C@@H](O)[C@H](O)[C@H]3NC(C)=O)[C@@H](O)[C@H](O[C@H]3O[C@H](CO)[C@@H](O)[C@H](O)[C@@H]3O[C@@H]3O[C@H](CO)[C@@H](O[C@@H]4O[C@H](CO)[C@H](O)[C@H](O)[C@H]4O)[C@H](O)[C@H]3NC(C)=O)[C@@H]2O)[C@@H]1O [GnGF-bi-PA, Galβ1-4GlcNAcβ1-2Manα1-3(GlcNAcβ1-2Manα1-6)Manβ1-4GlcNAcβ1-4GlcNAc(Fucα1-6)-2-aminopyridine] | 3 | –
CC(=O)N[C@H]1[C@H](O[C@@H]([C@H](O)[C@H](CNc2ccccn2)NC(C)=O)[C@H](O)CO[C@@H]2O[C@@H](C)[C@@H](O)[C@@H](O)[C@@H]2O)O[C@H](CO)[C@@H](O[C@@H]2O[C@H](CO[C@H]3O[C@H](CO)[C@@H](O)[C@H](O)[C@@H]3O[C@@H]3O[C@H](CO)[C@@H](O)[C@H](O)[C@H]3NC(C)=O)[C@@H](O)[C@H](O[C@H]3O[C@H](CO)[C@@H](O)[C@H](O)[C@@H]3O[C@@H]3O[C@H](CO)[C@@H](O)[C@H](O)[C@H]3NC(C)=O)[C@@H]2O)[C@@H]1O [GnGnF-bi-PA, GlcNAcβ1-2Manα1-3-(GlcNAcβ1-2Manα1-6)Manβ1-4GlcNAcβ1-4GlcNAc(Fucα1-6)-2-aminopyridine] | 78 | reaction of the enzyme with acceptor (qualitative): reacts; reactivity relative to GnGn-bi-PA acceptor taken as 100%: about 78%
CC(=O)N[C@H]1[C@H](O[C@@H]([C@H](O)[C@H](CNc2ccccn2)NC(C)=O)[C@H](O)CO)O[C@H](CO)[C@@H](O[C@@H]2O[C@H](CO[C@H]3O[C@H](CO)[C@@H](O)[C@H](O)[C@@H]3O[C@@H]3O[C@H](CO)[C@@H](O)[C@H](O)[C@H]3NC(C)=O)[C@@H](O)[C@H](O[C@H]3O[C@H](CO)[C@@H](O[C@@H]4O[C@H](CO)[C@@H](O)[C@H](O)[C@H]4NC(C)=O)[C@H](O)[C@@H]3O[C@@H]3O[C@H](CO)[C@@H](O)[C@H](O)[C@H]3NC(C)=O)[C@@H]2O)[C@@H]1O [GnGnGn-tri-PA, GlcNAcβ1-2(GlcNAcβ1-4)Manα1-3(GlcNAcβ1-2Manα1-6)-Manβ1-4GlcNAcβ1-4GlcNAc-2-aminopyridine] | 125 | reaction of the enzyme with acceptor (qualitative): reacts; reactivity relative to GnGn-bi-PA acceptor taken as 100%: about 125%
CC(=O)N[C@H]1[C@H](O[C@@H]([C@H](O)[C@H](CNc2ccccn2)NC(C)=O)[C@H](O)CO)O[C@H](CO)[C@@H](O[C@@H]2O[C@H](CO[C@H]3O[C@H](CO)[C@@H](O)[C@H](O)[C@@H]3O[C@@H]3O[C@H](CO)[C@@H](O)[C@H](O)[C@H]3NC(C)=O)[C@@H](O)[C@H](O[C@H]3O[C@H](CO)[C@@H](O)[C@H](O)[C@@H]3O)[C@@H]2O)[C@@H]1O [GnM-PA, Manα1-3(GlcNAcβ1-2Manα1-6)Manβ1-4GlcNAcβ1-4GlcNAc-2-aminopyridine] | 66 | reaction of the enzyme with acceptor (qualitative): reacts; reactivity relative to GnGn-bi-PA acceptor taken as 100%: about 66%
CC(=O)N[C@H]1[C@H](O[C@H]2[C@@H](O)[C@@H](CO)O[C@@H](O[C@@H]([C@H](O)[C@@H](O)CNc3ccccn3)[C@H](O)CO)[C@@H]2O)O[C@H](CO)[C@@H](O[C@@H]2O[C@H](CO)[C@H](O)[C@H](O)[C@H]2O)[C@@H]1O [Lacto-N-neotetraose-PA, Galβ1-4GlcNAcβ1-3Galβ1-4Glc-2-aminopyridine] | 0 | –
CC(=O)N[C@H]1[C@H](O[C@H]2[C@@H](O)[C@@H](CO)O[C@@H](O[C@@H]([C@H](O)[C@@H](O)CNc3ccccn3)[C@H](O)CO)[C@@H]2O)O[C@H](CO)[C@@H](O)[C@@H]1O [Lacto-N-triaose-PA, GlcNAcβ1-3Galβ1-4Glc-2-aminopyridine] | 0 | –
CC(=O)N[C@H]1[C@H](O[C@@H]([C@H](O)[C@H](CNc2ccccn2)NC(C)=O)[C@H](O)CO)O[C@H](CO)[C@@H](O[C@@H]2O[C@H](CO[C@H]3O[C@H](CO)[C@@H](O)[C@H](O)[C@@H]3O)[C@@H](O)[C@H](O[C@H]3O[C@H](CO)[C@@H](O)[C@H](O)[C@@H]3O)[C@@H]2O)[C@@H]1O [MM-PA, Manα1-3Manα1-6)Manβ1-4GlcNAcβ1-4GlcNAc-2-aminopyridine] | 0 | –
[Mn+2] [Mn^2+] | – | requirement for expression of GnT-V activity: not necessary
